# Laboratory results reported in patent US10988462B2, “Pyrazole compounds substituted with heteroaryl and pharmaceutical use thereof” (Japan Tobacco Inc., priority 2018, dated 2021).
# Experiments:
# Escherichia coli WP2uvrA = experiment: Ames test (reverse mutation test), pre-incubation method, strain WP2uvrA; format: cell-based
# Text: (§1) Ames Test (Reverse Mutation Test)
# Two plates per treatment were used.
# [1] = tested on: Salmonella typhimurium TA98; experiment: Ames test (reverse mutation test), pre-incubation method, strain TA98
# Experimental: as §1
# (§2) Metabolites 1 to 3 and Metabolites A to E were each tested herein. The purpose of this test is to evaluate the potential of each metabolite to induce reverse mutations in the standard strains of Salmonella typhimurium (TA98, TA1537, TA100, and TA1535) and Escherichia coli (WP2uvrA), in either the presence or absence of a rat liver metabolic activation system (S9 mix).
# (§3) The solvent used herein was dimethyl sulfoxide (DMSO, 100 μL/plate).
# (§4) The test was performed by the pre-incubation method with or without S9 mix. When the test was performed without S9 mix, sodium phosphate buffer solution (pH 7.4) was added.
# (§5) 0.5 mL of S9 mix or 0.5 mL of 0.1 mol/L sodium phosphate buffer solution (pH 7.4), and 0.1 mL of the bacterial culture solution were added to a test tube containing 0.1 mL of the negative control formulation (DMSO alone), the metabolite, or the positive control formulation. The mixtures were pre-incubated at 37° C. for 20 minutes while shaking. After the pre-incubation period, 2 mL of top agar were added and the mixtures were vortex-mixed and seeded onto plates. Two plates per treatment were used. Each plate was incubated at 37±1° C. for 48 hours or more and the revertant colonies were counted. The mean number of revertant colonies for each treatment plate was then calculated. The presence or absence of growth inhibition due to any antibacterial effect of the test article and precipitation of the test article was observed grossly or under a stereomicroscope. […] Evaluation was based on mean values with no statistical comparisons being used.
# [2] = tested on: Salmonella typhimurium TA1535; experiment: Ames test (reverse mutation test), pre-incubation method, strain TA1535; format: cell-based
# Experimental: as §1, §2, §3, §4, §5
# [3] = tested on: Salmonella typhimurium TA1537; experiment: Ames test (reverse mutation test), pre-incubation method, strain TA1537; format: cell-based
# Experimental: as §1, §2, §3, §4, §5
# [4] = tested on: Salmonella typhimurium TA100; experiment: Ames test (reverse mutation test), pre-incubation method, strain TA100; format: cell-based
# Experimental: as §1, §2, §3, §4, §5
structure (smiles),measurement,setting,value
CC(C)(Oc1cc(F)cc(-c2cc(N)nn2-c2cnc(C(F)(F)F)nc2)c1)C(F)(F)F [Metabolite 1],Number of revertant colonies WP2uvrA,"Escherichia coli WP2uvrA; S9 mix +, dose 6.9 μg/plate",18
same,Number of revertant colonies WP2uvrA,"Escherichia coli WP2uvrA; S9 mix +, dose 21 μg/plate",20
same,Number of revertant colonies WP2uvrA,"Escherichia coli WP2uvrA; S9 mix +, dose 62 μg/plate",18
same,Number of revertant colonies WP2uvrA,"Escherichia coli WP2uvrA; S9 mix +, dose 185 μg/plate",16
same,Number of revertant colonies WP2uvrA,"Escherichia coli WP2uvrA; S9 mix +, dose 556 μg/plate",18
same,Number of revertant colonies WP2uvrA,"Escherichia coli WP2uvrA; S9 mix +, dose 1667 μg/plate",14
same,Number of revertant colonies WP2uvrA,"Escherichia coli WP2uvrA; S9 mix +, dose 5000 μg/plate",11
same,Number of revertant colonies WP2uvrA,"Escherichia coli WP2uvrA; S9 mix −, dose 6.9 μg/plate",17
same,Number of revertant colonies WP2uvrA,"Escherichia coli WP2uvrA; S9 mix −, dose 21 μg/plate",19
same,Number of revertant colonies WP2uvrA,"Escherichia coli WP2uvrA; S9 mix −, dose 62 μg/plate",16
same,Number of revertant colonies WP2uvrA,"Escherichia coli WP2uvrA; S9 mix −, dose 185 μg/plate",17
same,Number of revertant colonies WP2uvrA,"Escherichia coli WP2uvrA; S9 mix −, dose 556 μg/plate",18
same,Number of revertant colonies WP2uvrA,"Escherichia coli WP2uvrA; S9 mix −, dose 1667 μg/plate",15
same,Number of revertant colonies WP2uvrA,"Escherichia coli WP2uvrA; S9 mix −, dose 5000 μg/plate",9
same,Number of revertant colonies TA98,"[1]; S9 mix +, dose 185 μg/plate",40
same,Number of revertant colonies TA98,"[1]; S9 mix −, dose 21 μg/plate",32
same,Number of revertant colonies TA1535,"[2]; S9 mix +, dose 6.9 μg/plate",10
same,Number of revertant colonies TA1535,"[2]; S9 mix +, dose 21 μg/plate",8
same,Number of revertant colonies TA1535,"[2]; S9 mix +, dose 62 μg/plate",9
same,Number of revertant colonies TA1535,"[2]; S9 mix +, dose 185 μg/plate",10
same,Number of revertant colonies TA1535,"[2]; S9 mix +, dose 556 μg/plate",9
same,Number of revertant colonies TA1535,"[2]; S9 mix +, dose 1667 μg/plate",10
same,Number of revertant colonies TA1535,"[2]; S9 mix +, dose 5000 μg/plate",7
same,Number of revertant colonies TA1535,"[2]; S9 mix −, dose 6.9 μg/plate",11
same,Number of revertant colonies TA1535,"[2]; S9 mix −, dose 21 μg/plate",10
same,Number of revertant colonies TA1535,"[2]; S9 mix −, dose 62 μg/plate",9
same,Number of revertant colonies TA1535,"[2]; S9 mix −, dose 185 μg/plate",7
same,Number of revertant colonies TA1535,"[2]; S9 mix −, dose 556 μg/plate",9
same,Number of revertant colonies TA1535,"[2]; S9 mix −, dose 1667 μg/plate",5
same,Number of revertant colonies TA1535,"[2]; S9 mix −, dose 5000 μg/plate",7
same,Number of revertant colonies TA1537,"[3]; S9 mix +, dose 6.9 μg/plate",13
same,Number of revertant colonies TA1537,"[3]; S9 mix +, dose 21 μg/plate",12
same,Number of revertant colonies TA1537,"[3]; S9 mix +, dose 62 μg/plate",13
same,Number of revertant colonies TA1537,"[3]; S9 mix +, dose 185 μg/plate",13
same,Number of revertant colonies TA1537,"[3]; S9 mix +, dose 556 μg/plate",10
same,Number of revertant colonies TA1537,"[3]; S9 mix +, dose 1667 μg/plate",9
same,Number of revertant colonies TA1537,"[3]; S9 mix +, dose 5000 μg/plate",4
same,Number of revertant colonies TA1537,"[3]; S9 mix −, dose 6.9 μg/plate",8
same,Number of revertant colonies TA1537,"[3]; S9 mix −, dose 21 μg/plate",8
same,Number of revertant colonies TA1537,"[3]; S9 mix −, dose 62 μg/plate",8
same,Number of revertant colonies TA1537,"[3]; S9 mix −, dose 185 μg/plate",9
same,Number of revertant colonies TA1537,"[3]; S9 mix −, dose 556 μg/plate",9
same,Number of revertant colonies TA1537,"[3]; S9 mix −, dose 1667 μg/plate",5
same,Number of revertant colonies TA1537,"[3]; S9 mix −, dose 5000 μg/plate",3
same,Number of revertant colonies TA100,"[4]; S9 mix +, dose 6.9 μg/plate",132
same,Number of revertant colonies TA100,"[4]; S9 mix +, dose 21 μg/plate",132
same,Number of revertant colonies TA100,"[4]; S9 mix +, dose 62 μg/plate",113
same,Number of revertant colonies TA100,"[4]; S9 mix +, dose 185 μg/plate",108
same,Number of revertant colonies TA100,"[4]; S9 mix +, dose 556 μg/plate",128
same,Number of revertant colonies TA100,"[4]; S9 mix +, dose 1667 μg/plate",131
same,Number of revertant colonies TA100,"[4]; S9 mix +, dose 5000 μg/plate",121
same,Number of revertant colonies TA100,"[4]; S9 mix −, dose 6.9 μg/plate",89
same,Number of revertant colonies TA100,"[4]; S9 mix −, dose 21 μg/plate",87
same,Number of revertant colonies TA100,"[4]; S9 mix −, dose 62 μg/plate",87
same,Number of revertant colonies TA100,"[4]; S9 mix −, dose 185 μg/plate",89
same,Number of revertant colonies TA100,"[4]; S9 mix −, dose 556 μg/plate",80
same,Number of revertant colonies TA100,"[4]; S9 mix −, dose 1667 μg/plate",69
same,Number of revertant colonies TA100,"[4]; S9 mix −, dose 5000 μg/plate",47
Nc1cc(-c2cc(F)cc(OC(F)(F)F)c2)n(-c2cncc(F)c2)n1 [Metabolite 2],Number of revertant colonies WP2uvrA,"Escherichia coli WP2uvrA; S9 mix +, dose 6.9 μg/plate",19
same,Number of revertant colonies WP2uvrA,"Escherichia coli WP2uvrA; S9 mix +, dose 21 μg/plate",19
same,Number of revertant colonies WP2uvrA,"Escherichia coli WP2uvrA; S9 mix +, dose 62 μg/plate",19
same,Number of revertant colonies WP2uvrA,"Escherichia coli WP2uvrA; S9 mix +, dose 185 μg/plate",19
same,Number of revertant colonies WP2uvrA,"Escherichia coli WP2uvrA; S9 mix +, dose 556 μg/plate",17
same,Number of revertant colonies WP2uvrA,"Escherichia coli WP2uvrA; S9 mix +, dose 1667 μg/plate",14
same,Number of revertant colonies WP2uvrA,"Escherichia coli WP2uvrA; S9 mix +, dose 5000 μg/plate",9
same,Number of revertant colonies WP2uvrA,"Escherichia coli WP2uvrA; S9 mix −, dose 6.9 μg/plate",21
same,Number of revertant colonies WP2uvrA,"Escherichia coli WP2uvrA; S9 mix −, dose 21 μg/plate",16
same,Number of revertant colonies WP2uvrA,"Escherichia coli WP2uvrA; S9 mix −, dose 62 μg/plate",23
same,Number of revertant colonies WP2uvrA,"Escherichia coli WP2uvrA; S9 mix −, dose 185 μg/plate",20
same,Number of revertant colonies WP2uvrA,"Escherichia coli WP2uvrA; S9 mix −, dose 556 μg/plate",16
same,Number of revertant colonies WP2uvrA,"Escherichia coli WP2uvrA; S9 mix −, dose 1667 μg/plate",13
same,Number of revertant colonies WP2uvrA,"Escherichia coli WP2uvrA; S9 mix −, dose 5000 μg/plate",8
same,Number of revertant colonies TA98,"[1]; S9 mix +, dose 62 μg/plate",35
same,Number of revertant colonies TA98,"[1]; S9 mix −, dose 21 μg/plate",30
same,Number of revertant colonies TA98,"[1]; S9 mix −, dose 185 μg/plate",28
same,Number of revertant colonies TA1537,"[3]; S9 mix +, dose 6.9 μg/plate",12
same,Number of revertant colonies TA1537,"[3]; S9 mix +, dose 21 μg/plate",13
same,Number of revertant colonies TA1537,"[3]; S9 mix +, dose 62 μg/plate",12
same,Number of revertant colonies TA1537,"[3]; S9 mix +, dose 185 μg/plate",12
same,Number of revertant colonies TA1537,"[3]; S9 mix +, dose 556 μg/plate",8
same,Number of revertant colonies TA1537,"[3]; S9 mix +, dose 1667 μg/plate",0
same,Number of revertant colonies TA1537,"[3]; S9 mix +, dose 5000 μg/plate",1
same,Number of revertant colonies TA1537,"[3]; S9 mix −, dose 6.9 μg/plate",9
same,Number of revertant colonies TA1537,"[3]; S9 mix −, dose 21 μg/plate",8
same,Number of revertant colonies TA1537,"[3]; S9 mix −, dose 62 μg/plate",8
same,Number of revertant colonies TA1537,"[3]; S9 mix −, dose 185 μg/plate",8
same,Number of revertant colonies TA1537,"[3]; S9 mix −, dose 556 μg/plate",3
same,Number of revertant colonies TA1537,"[3]; S9 mix −, dose 1667 μg/plate",3
same,Number of revertant colonies TA1537,"[3]; S9 mix −, dose 5000 μg/plate",2
same,Number of revertant colonies TA100,"[4]; S9 mix +, dose 6.9 μg/plate",109
same,Number of revertant colonies TA100,"[4]; S9 mix +, dose 21 μg/plate",119
same,Number of revertant colonies TA100,"[4]; S9 mix +, dose 62 μg/plate",118
same,Number of revertant colonies TA100,"[4]; S9 mix +, dose 185 μg/plate",125
same,Number of revertant colonies TA100,"[4]; S9 mix +, dose 556 μg/plate",115
same,Number of revertant colonies TA100,"[4]; S9 mix +, dose 1667 μg/plate",97
same,Number of revertant colonies TA100,"[4]; S9 mix +, dose 5000 μg/plate",92
same,Number of revertant colonies TA100,"[4]; S9 mix −, dose 6.9 μg/plate",89
same,Number of revertant colonies TA100,"[4]; S9 mix −, dose 21 μg/plate",90
same,Number of revertant colonies TA100,"[4]; S9 mix −, dose 62 μg/plate",87
same,Number of revertant colonies TA100,"[4]; S9 mix −, dose 185 μg/plate",86
same,Number of revertant colonies TA100,"[4]; S9 mix −, dose 556 μg/plate",6
same,Number of revertant colonies TA100,"[4]; S9 mix −, dose 1667 μg/plate",5
same,Number of revertant colonies TA100,"[4]; S9 mix −, dose 5000 μg/plate",5
